Experimental data published in ChEMBL document CHEMBL2074466, “Breast cancer resistance protein exports sulfated estrogens but not free estrogens” (Mol Pharmacol, 2003).

What was measured:
[1] = target: T1, Broad substrate specificity ATP-binding cassette transporter ABCG2 (Homo sapiens, UniProt Q9UNQ0); test: TP_TRANSPORTER: efflux in BCRP-expressing LLC-PK1 cells; type: functional, cell-based; conditions: pig
T1 sequence (Q9UNQ0 whole entry): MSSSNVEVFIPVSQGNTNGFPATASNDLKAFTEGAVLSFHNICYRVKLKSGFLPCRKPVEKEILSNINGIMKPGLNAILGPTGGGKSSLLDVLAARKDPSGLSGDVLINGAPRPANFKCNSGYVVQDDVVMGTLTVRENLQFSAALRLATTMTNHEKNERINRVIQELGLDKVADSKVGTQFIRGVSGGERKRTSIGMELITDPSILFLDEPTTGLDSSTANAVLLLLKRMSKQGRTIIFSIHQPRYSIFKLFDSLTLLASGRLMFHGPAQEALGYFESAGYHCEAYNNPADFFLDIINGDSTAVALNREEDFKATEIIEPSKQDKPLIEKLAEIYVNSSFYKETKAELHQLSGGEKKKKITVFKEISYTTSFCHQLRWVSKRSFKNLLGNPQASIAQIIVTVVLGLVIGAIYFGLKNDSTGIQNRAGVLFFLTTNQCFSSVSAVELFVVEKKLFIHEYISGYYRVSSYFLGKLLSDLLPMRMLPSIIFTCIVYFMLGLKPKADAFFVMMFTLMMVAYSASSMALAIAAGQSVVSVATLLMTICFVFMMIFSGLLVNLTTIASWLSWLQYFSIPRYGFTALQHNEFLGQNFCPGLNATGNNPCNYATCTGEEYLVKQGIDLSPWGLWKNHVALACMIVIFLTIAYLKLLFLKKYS

BCRP (ABCG2) [2] = target: T2, BCRP (ABCG2) (Homo sapiens, UniProt Q9UNQ0); test: TP_TRANSPORTER: inhibition of E1S uptake by 17beta-estradiol 3-sulfate at a concentration of 30uM in membrane vesicle from BCRP-expressing K562 cells; type: functional, cell membranes; design: scale not given: the % may be the effect or the level left; conditions: membrane vesicles from BCRP-expressing K562 cells, probe E1S, read-out: Activity
T2 sequence (Q9UNQ0 whole entry): T1 sequence (Q9UNQ0 whole entry)

BCRP (ABCG2) [3] = target: T2, BCRP (ABCG2); test: TP_TRANSPORTER: inhibition of E1S uptake by Taurolithocholate-3-sulfate at a concentration of 30uM in membrane vesicle from BCRP-expressing K562 cells; type: functional, cell membranes; design: scale not given: the % may be the effect or the level left; conditions: membrane vesicles from BCRP-expressing K562 cells, probe E1S, read-out: Activity
[4] = target: T1, Broad substrate specificity ATP-binding cassette transporter ABCG2; test: TP_TRANSPORTER: drug resistance in BCRP-expressing LLC-PK1 cells; type: functional, cell-based; conditions: pig
[5] = target: T1, Broad substrate specificity ATP-binding cassette transporter ABCG2; test: TP_TRANSPORTER: inhibition of E1S uptake by 7-ethyl-10-hydroxycamptothecin at a concentration of 20uM in membrane vesicle from BCRP-expressing K562 cells; type: functional, cell membranes; design: scale not given: the % may be the effect or the level left; conditions: k562, 20 µM
BCRP (ABCG2) [6] = target: T2, BCRP (ABCG2); test: TP_TRANSPORTER: inhibition of E1S uptake by 17beta-estradiol at a concentration of 30uM in membrane vesicle from BCRP-expressing K562 cells; type: functional, cell membranes; design: scale not given: the % may be the effect or the level left; conditions: membrane vesicles from BCRP-expressing K562 cells, probe E1S, read-out: Activity
[7] = target: T1, Broad substrate specificity ATP-binding cassette transporter ABCG2; test: TP_TRANSPORTER: uptake in BCRP-expressing LLC-PK1 cells; type: functional, cell-based; conditions: pig
BCRP (ABCG2) [8] = target: T2, BCRP (ABCG2); test: TP_TRANSPORTER: inhibition of E1S uptake by Estrone at a concentration of 30uM in membrane vesicle from BCRP-expressing K562 cells; type: functional, cell membranes; design: scale not given: the % may be the effect or the level left; conditions: membrane vesicles from BCRP-expressing K562 cells, probe E1S, read-out: Activity
[9] = target: T1, Broad substrate specificity ATP-binding cassette transporter ABCG2; test: TP_TRANSPORTER: inhibition of E1S uptake by Cortisol at a concentration of 30uM in membrane vesicle from BCRP-expressing K562 cells; type: functional, cell membranes; design: scale not given: the % may be the effect or the level left; conditions: k562, 30 µM
BCRP (ABCG2) [10] = target: T2, BCRP (ABCG2); test: TP_TRANSPORTER: inhibition of E1S uptake by Dehydroepiandrosterone-3-sulfate at a concentration of 30uM in membrane vesicle from BCRP-expressing K562 cells; type: functional, cell membranes; design: scale not given: the % may be the effect or the level left; conditions: membrane vesicles from BCRP-expressing K562 cells, probe E1S, read-out: Activity
BCRP (ABCG2) [11] = target: T2, BCRP (ABCG2); test: TP_TRANSPORTER: inhibition of E1S uptake by Taurolithocholate at a concentration of 30uM in membrane vesicle from BCRP-expressing K562 cells; type: functional, cell membranes; design: scale not given: the % may be the effect or the level left; conditions: membrane vesicles from BCRP-expressing K562 cells, probe E1S, read-out: Activity
[12] = substrate: C[C@]12CC[C@@H]3c4ccc(OS(=O)(=O)O)cc4CC[C@H]3[C@@H]1CCC2=O; test: TP_TRANSPORTER: uptake in membrane vesicle from BCRP-expressing K562 cells; type: functional, cell membranes

In the case of `C[C@]12CC[C@@H]3c4ccc(OS(=O)(=O)O)cc4CC[C@H]3[C@@H]1CC[C@@H]2O`, the Activity [1] is reported as “substrate []” and the activity at 30 µM (BCRP (ABCG2) [2]) is reported as 50%.

For `C[C@H](CCC(=O)NCCS(=O)(=O)O)C1CC[C@H]2[C@@H]3CC[C@@H]4C[C@H](OS(=O)(=O)O)CC[C@]4(C)[C@H]3CC[C@]12C` (some centres undefined), the activity at 30 µM (BCRP (ABCG2) [3]) was 30%.

`CCc1c2c(nc3ccc(O)cc13)-c1cc3c(c(=O)n1C2)COC(=O)[C@]3(O)CC` [7-ETHYL-10-HYDROXYCAMPTOTHECIN] was tested, and the Activity [4] was “substrate []” and the Activity [5] was 40%.

`C[C@]12CC[C@@H]3c4ccc(O)cc4CC[C@H]3[C@@H]1CC[C@@H]2O` [ESTRADIOL] showed an activity at 30 µM (BCRP (ABCG2) [6]) of 50%.

In the case of `C[C@]12CC[C@@H]3c4ccc(OS(=O)(=O)O)cc4CC[C@H]3[C@@H]1CCC2=O` [ESTRONE SULFURIC ACID], the Activity [7] is reported as “substrate []”.

With `C[C@]12CC[C@@H]3c4ccc(O)cc4CC[C@H]3[C@@H]1CCC2=O` [ESTRONE] the activity at 30 µM (BCRP (ABCG2) [8]) was 70%.

In the case of `COc1ccc2c3c([nH]c2c1)[C@H](C=C(C)C)N1C(=O)[C@@H]2CCCN2C(=O)[C@@H]1C3` [FUMITREMORGIN], the Activity [4] is reported as “substrate []”.

Molecule `C[C@]12CCC(=O)C=C1CC[C@@H]1[C@@H]2[C@@H](O)C[C@@]2(C)[C@H]1CC[C@]2(O)C(=O)CO` [HYDROCORTISONE] has an Activity [9] of 70%.

`O=C1c2c(O)ccc(O)c2C(=O)c2c(NCCNCCO)ccc(NCCNCCO)c21` [MITOXANTRONE] was tested, and the Activity [4] was “substrate []”.

`C[C@]12CC[C@H](OS(=O)(=O)O)CC1=CC[C@@H]1[C@@H]2CC[C@]2(C)C(=O)CC[C@@H]12` [PRASTERONE SULFURIC ACID] showed an activity at 30 µM (BCRP (ABCG2) [10]) of 50%.

`C[C@H](CCC(=O)NCCS(=O)(=O)O)[C@H]1CC[C@H]2[C@@H]3CC[C@@H]4C[C@H](O)CC[C@]4(C)[C@H]3CC[C@]12C` [TAUROLITHOCHOLIC ACID] showed an activity at 30 µM (BCRP (ABCG2) [11]) of 20%.

B1: Broad substrate specificity ATP-binding cassette transporter ABCG2 (Homo sapiens) (protein)
chain: T1 sequence (Q9UNQ0 whole entry)
B1 gave a Km [12] of 6.8 µM.
